Measured values: US7932262B2 (Novartis AG, priority 2006, dated 2011)

test system: PC-3 cells; experiment: Cell Proliferation Assay (Cell Titer Glo), PC-3 cell line; format: cell-based; conditions: Homo sapiens, PC-3, Cell Proliferation Assay, PC3; read-out: CPEC50 PC3
Method: IV. Cell Proliferation Assay Protocol:
A2780, PC-3, or PC3MM cells were seeded at 1000 cells/well in 100 μL/well (10.000 cells/mL) growth media in 96-well plates. Cells were allowed to adhere to the bottom of plates for 3-5 hours in a 37° C. 5% CO2 incubator. Compounds were dissolved in DMSO and then transferred to the cell plates. The cells were incubated with the compounds for 3 days in a 37° C. 5% CO2 incubator. The growth medium containing the compounds was then removed from the cells and fresh medium was added, followed by 100 μL of Cell Titer Glo assay reagent (Promega). This mixture was shaken for 1 minute and then incubated without shaking for 10 minutes. Activity determinations for the compounds were made by detection on a Trilux Instrument.
V. Cell Proliferation Assay Protocol: PC-3 Cell Line
PC-3 cells were seeded at 1000 cells/well in 100 μL/well (10.000 cells/mL) along with growth media into black-walled, clear bottom 96-well plates. The cells were allowed to adhere to the bottom of the plate for 3-5 hours in a 37° C. 5% CO2 incubator.
Test compounds were diluted to 500× in DMSO. The DMSO solutions of six of the compounds were transferred to the cells in the 96 well round bottom plate, column 2, row B-F. A 1:3 serial dilution of each compound was carried out. The serial dilution comprised adding 20 μL of DMSO to the wells containing the compounds and doing a 1:3 dilution across the plate from columns 2-10. Column 11 contained only DMSO. The serial dilution was carried out using a BioMek 2000 protocol “CP Serial Dilution using 250 μL tips” or “Proliferation Compound” (if using 20 μL tips).
To a 96 deep well block, columns 2-11 rows B-F, was transferred 500 μL of growth medium. Using the FX protocol “HH_CellAssay—2 μL to 500 μL”, 2 μL of compound from each cell of the compound plate was transferred to the corresponding cell in the 96 deep well block containing 500 μL of growth medium. The instrument was programmed to dilute the compound in growth medium and then transfer 100 μL of that mixture to cell plates containing cells. The cell plates, to which test compounds had been added, were incubated for 3 days at 37° C. Following the incubation, the medium was removed and replaced with fresh medium. Cell Titer Glo (100 μL) was added to each well and the plate was shaken for 1 minute and then incubated without shaking for 10 minutes. The plates were then read using a Trilux instrument.

First: CNc1ncc2ccc(OC3CCN(C(C)C)CC3)cc2n1 [Compound 322, 7-(1-isopropylpiperidin-4-yloxy)-N-methylquinazolin-2-amine]
Second: CC(C)N1CCC(Oc2ccc3cnc(Nc4nc5ccccc5s4)nc3c2)CC1 [Compound 324, N-(7-(1-isopropylpiperidin-4-yloxy)quinazolin-2-yl)benzo[d]thiazol-2-amine]
The EC50 of the first is higher: 5 to 10 µM for the first, less than 5 µM for the second.

CNc1ncc2ccc(O)c(C3CCN(C(C)C)CC3)c2n1 [Compound 323, 8-(1-isopropylpiperidin-4-yl)-2-(methylamino)quinazolin-7-ol] and CC(C)N1CCC(Nc2ncc3cccc(O)c3n2)CC1 [Compound 543, 2-(1-isopropylpiperidin-4-ylamino)quinazolin-8-ol] fall in the same range of EC50: 5 to 10 µM for the first, 5 to 10 µM for the second.

O=C(NC1CCNCC1)c1ccc(Nc2ncc3c(Br)ccc(OC4CCNCC4)c3n2)cc1 [Compound 370, 4-(5-bromo-8-(piperidin-4-yloxy)quinazolin-2-ylamino)-N-(piperidin-4-yl)benzamide] and Cc1ccc(OC2CCNCC2)c2nc(Nc3ccc(C(=O)NC4CCNCC4)cc3)ncc12 [Compound 376, 4-(5-methyl-8-(piperidin-4-yloxy)quinazolin-2-ylamino)-N-(piperidin-4-yl)benzamide] fall in the same range of EC50: 5 to 10 µM for the first, 5 to 10 µM for the second.

First: COc1cc(C(=O)NC2CCN(C)CC2)ccc1Nc1ncc2c(Br)ccc(OC3CCNCC3)c2n1 [Compound 371, 4-(5-bromo-8-(piperidin-4-yloxy)quinazolin-2-ylamino)-3-methoxy-N-(1-methylpiperidinyl)benzamide]
Second: Brc1ccc(OC2CCNCC2)c2nc(Nc3ccc(N4CCNCC4)cc3)ncc12 [Compound 372, 5-bromo-N-(4-(piperazin-1-yl)phenyl)-8-(piperidin-4-yloxy)quinazolin-2-amine]
The EC50 of the first is higher: 5 to 10 µM for the first, less than 5 µM for the second. The second is the more potent here.

Cc1ccc(OC2CCNCC2)c2nc(Nc3ccc(N4CCNCC4)cc3)ncc12 [Compound 374, 5-methyl-N-(4-(piperazin-1-yl)phenyl)-8-(piperidin-4-yloxy)quinazolin-2-amine] and CC(C)N1CCC(Oc2cccc3cnc(NC(=O)c4ccccc4)nc23)CC1 [Compound 541, N-(8-(1-isopropylpiperidin-4-yloxy)quinazolin-2-yl)benzamide] fall in the same range of EC50: 5 to 10 µM for the first, 5 to 10 µM for the second.

CC(C)N1CCC(Oc2cccc3cnc(NS(=O)(=O)c4ccccc4)nc23)CC1 [Compound 542, N-(8-(1-isopropylpiperidin-4-yloxy)quinazolin-2-yl)benzenesulfonamide] and CC(=O)Nc1ncc2cccc(OC3CCN(C(C)C)CC3)c2n1 [Compound 544, N-(8-(1-isopropylpiperidin-4-yloxy)quinazolin-2-yl)acetamide] fall in the same range of EC50: 5 to 10 µM for the first, 5 to 10 µM for the second.

NS(=O)(=O)c1ccc(Nc2ncc3cc(C(=O)Nc4cccc(NC(=O)c5ccccc5)c4)ccc3n2)cc1 [Compound 578, N-(3-benzamidophenyl)-2-(4-sulfamoylphenylamino)quinazoline-6-carboxamide] and CC(C)NC(=O)c1ccc(Nc2ncc3ccc(Oc4ccccc4)cc3n2)cc1 [Compound 591, N-isopropyl-4-(7-phenoxyquinazolin-2-ylamino)benzamide] cannot be ordered by EC50: less than 5 µM for the first, less than 5 µM for the second.

same assay, conditions: Homo sapiens, PC-3, PC3 cells; read-out: CPEC50 PC3

Nc1ncc(-c2ccc3cnc(Nc4ccc(S(N)(=O)=O)cc4)nc3c2OC2CCNCC2)cc1C(F)(F)F [Compound 933, 4-(7-(6-amino-5-(trifluoromethyl)pyridin-3-yl)-8-(piperidin-4-yloxy)quinazolin-2-ylamino)benzenesulfonamide] and Nc1cc(C(F)(F)F)c(-c2ccc3cnc(Nc4ccc(S(N)(=O)=O)cc4)nc3c2OC2CCNCC2)cn1 [Compound 934, 4-(7-(6-amino-4-(trifluoromethyl)pyridin-3-yl)-8-(piperidin-4-yloxy)quinazolin-2-ylamino)benzenesulfonamide] cannot be ordered by EC50: less than 5 µM for the first, less than 5 µM for the second.

COc1cc(Nc2ncc3ccc(OC4CCNCC4)cc3n2)cc(OC)c1 [Compound 957, N-(3,5-dimethoxyphenyl)-7-(piperidin-4-yloxy)quinazolin-2-amine] was tested, and the EC50 was less than 5 µM.

target: T1, PDK1 kinase (Homo sapiens, UniProt O15530); experiment: PDK1 Kinase Alpha Screen Assay; format: biochemical; conditions: PDK1 Kinase Alpha Screen Assay; read-out: PDK1 IC50
T1 sequence (O15530 1-556): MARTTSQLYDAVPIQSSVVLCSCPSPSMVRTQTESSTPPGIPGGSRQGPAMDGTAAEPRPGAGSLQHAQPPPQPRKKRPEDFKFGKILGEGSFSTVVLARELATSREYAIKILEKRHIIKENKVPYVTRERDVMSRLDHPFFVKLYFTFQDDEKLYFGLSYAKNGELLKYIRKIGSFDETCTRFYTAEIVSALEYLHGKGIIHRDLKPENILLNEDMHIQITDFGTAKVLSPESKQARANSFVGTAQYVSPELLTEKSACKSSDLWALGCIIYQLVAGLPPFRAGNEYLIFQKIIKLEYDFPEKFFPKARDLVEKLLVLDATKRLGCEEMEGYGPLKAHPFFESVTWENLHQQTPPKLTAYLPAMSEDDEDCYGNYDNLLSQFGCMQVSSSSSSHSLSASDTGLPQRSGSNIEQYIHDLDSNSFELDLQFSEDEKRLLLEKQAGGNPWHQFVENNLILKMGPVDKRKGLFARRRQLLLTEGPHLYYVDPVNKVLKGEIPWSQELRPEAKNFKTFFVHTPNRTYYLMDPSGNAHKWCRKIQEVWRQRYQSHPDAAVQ
Method: 1. PDK1 Kinase Alpha Screen Assay
Reagents/Concentrations: The PDK1-4 peptide substrate, biotin-[…]-NH2, was purchased from the Tufts University Core Facility. The final concentration of PDK1-4 peptide substrate was 50 nM The ATP substrate (Adenosine-5′-triphosphate) was purchased from Roche Diagnostics. The final concentration of ATP substrate was 10 uM. Phospho-(Ser/Thr) PKA substrate antibody was purchased from Cell Signaling Technology. The final concentration of antibody was 0.3 mg/ml. The Alpha Screen Protein A detection kit containing donor and acceptor beads was purchased from PerkinElmer Life Sciences. The final concentration of both donor and acceptor beads was 25 μg/ml. Alpha Screen was used for detection. The biotinylated-PDK1-4 peptide was phosphorylated by PDK1 kinase using the ATP substrate. The biotinylated-PDK1-4 peptide substrate was bound to the streptavidin coated donor bead. The antibody was bound to the protein A coated acceptor bead. The antibody bound to the phosphorylated form of the biotinylated PDK-1 peptide substrate, bringing the donor and acceptor beads into close proximity. Laser irradiation of the donor bead at 680 nm generated a flow of short-lived singlet oxygen molecules. When the donor and acceptor beads were in close proximity, the reactive oxygen generated by the irradiation of the donor beads initiated a luminescence/fluorescence cascade in the acceptor beads. This process led to a highly amplified signal with output in the 530-620 nm range. Assays were carried out in 50 mM Tris, pH=7.5, 10 mM MgCl2, 0.1% Bovine Serum Albumin, 0.01% Tween-20, 2 mM Dithiolthreitol, 2.5% Dimethyl Sulfoxide. Reactions were stopped by adding 50 mM Tris, pH=7.5, 90 mM EDTA, 0.1% Bovine Serum Albumin, 0.01% Tween-20.
Procedure: To 10 μl of PDK1-4 peptide, 0.5 μl of test compound in dimethyl sulfoxide is added. PDK1 kinase and ATP are mixed. 10 μl of the PDK1 kinase/ATP mix is added to start the reaction. The reaction is allowed to proceed for 3-18 hours. The reactions are stopped by adding 10 μl of the EDTA-containing stop buffer. Beads are mixed with antibody. 25 μl of the bead/antibody mix is added to the stopped reactions. Plates are incubated at room temperature overnight to allow for detection development before being read. The assay is run is a 384-well format. […]

COc1ccccc1Oc1cccc2cnc(Nc3ccc(S(N)(=O)=O)cc3)nc12 [Compound 408, 4-(8-(2-methoxyphenoxy)quinazolin-2-ylamino)benzenesulfonamide] and NC(=O)c1cccc(Oc2cccc3cnc(Nc4ccc(S(N)(=O)=O)cc4)nc23)c1 [Compound 411, 3-(2-(4-sulfamoylphenylamino)quinazolin-8-yloxy)benzamide] cannot be ordered by IC50: less than 5 µM for the first, less than 5 µM for the second.

NS(=O)(=O)c1ccc(Nc2ncc3cccc(Oc4ccnc(F)c4)c3n2)cc1 [Compound 412, 4-(8-(2-fluoropyridin-4-yloxy)quinazolin-2-ylamino)benzenesulfonamide] and NS(=O)(=O)c1ccc(Nc2ncc3ccc(Oc4ccnc(F)c4)cc3n2)cc1 [Compound 416, 4-(7-(2-fluoropyridin-4-yloxy)quinazolin-2-ylamino)benzenesulfonamide] cannot be ordered by IC50: less than 5 µM for the first, less than 5 µM for the second.

same assay, conditions: read-out: PDK1 IC50

CCCCNS(=O)(=O)c1cccc(Nc2ncc3cccc(-c4cccc(NC(C)=O)c4)c3n2)c1 [Compound 87, N-{3-[2-(3-Butylsulfamoyl-phenylamino)-quinazolin-8-yl]-phenyl}-acetamide] and CC(=O)Nc1cccc(-c2ccc3cnc(Nc4ccc(S(N)(=O)=O)cc4)nc3c2)c1 [Compound 126, N-{3-[2-(4-Sulfamoyl-phenylamino)-quinazolin-7-yl]-phenyl}-acetamide] fall in the same range of IC50: 5 to 10 µM for the first, 5 to 10 µM for the second.

NC(=O)c1ccccc1-c1ccc2cnc(Nc3ccc(S(N)(=O)=O)cc3)nc2c1 [Compound 125, 2-[2-(4-Sulfamoyl-phenylamino)-quinazolin-7-yl]-benzamide] and CS(=O)(=O)c1cccc(-c2ccc3cnc(Nc4ccc(S(N)(=O)=O)cc4)nc3c2)c1 [Compound 128, 4-[7-(3-Methanesulfonyl-phenyl)-quinazolin-2-ylamino]-benzenesulfonamlde] cannot be ordered by IC50: less than 5 µM for the first, less than 5 µM for the second.

With CS(=O)(=O)Nc1cccc(-c2ccc3cnc(Nc4ccc(S(N)(=O)=O)cc4)nc3c2)c1 [Compound 129, 4-[7-(3-Methanesulfonylamino-phenyl)-quinazolin-2-ylamino]-benzenesulfonamide] the IC50 was 10 to 25 µM.
